31 compounds from ChEMBL document CHEMBL4699611, “Synthesis and evaluation of HIF-1α inhibitory activities of novel panaxadiol derivatives” (Bioorg Med Chem Lett, 2020) can be followed below.

Type in all cases: cell-based
Data set [1] addresses Hypoxia-inducible factor 1-alpha (Homo sapiens, UniProt Q16665). The data set is described as follows: Inhibition of hypoxia-induced HIF1alpha transcriptional activity in human Hep3B cells co-transfected with luciferase reporter plasmid containing six copies of HREs and pRL-CMV vector assessed as reduction in luciferase activity incubated for 24 hrs under hypoxic condition by HRE-dependent dual luciferase reporter gene assay. A general note: A reporter such as luciferase makes a cellular process visible.

The test system of data set [2] is Hep 3B2. Nature of the data set: Cytotoxicity against human Hep3B cells assessed as reduction in cell viability incubated for 24 hrs under normaxic condition by MTT assay. For orientation: Formazan colour is commonly taken as a measure of viable cells.
Data set [3] deals with Hep 3B2. The data set is described as follows: Cytotoxicity against human Hep3B cells assessed as reduction in cell viability at 30 uM incubated for 24 hrs in presence of 20% O2 by MTT assay. The note with it: hep 3b2, 24 h.

The IC50 is the midpoint of a concentration-inhibition curve. In the case of `CC1(C)CCC[C@](C)([C@H]2CC[C@]3(C)[C@@H]2[C@H](O)C[C@@H]2[C@@]4(C)CC(=C\c5ccc(F)cc5)/C(=N\NC(=N)N)C(C)(C)[C@@H]4CC[C@]23C)O1`, the IC50 was 4.8 µM in data set [1] and above 100 µM in the data set with Hep 3B2 [2].

With `CC1(C)CCC[C@](C)([C@H]2CC[C@]3(C)[C@@H]2[C@H](O)C[C@@H]2[C@@]4(C)CC/C(=N\Nc5cccc([N+](=O)[O-])c5)C(C)(C)[C@@H]4CC[C@]23C)O1`, the IC50 in data set [1] was 61.2 µM; with Hep 3B2 [2] it was above 100 µM.

For the compound `COc1ccc(-c2nnnn2CC(=O)O[C@@H]2C[C@@H]3[C@@]4(C)CCC(=O)C(C)(C)[C@@H]4CC[C@@]3(C)[C@]3(C)CC[C@H]([C@@]4(C)CCCC(C)(C)O4)[C@@H]23)cc1`, the IC50 (in data set [1]; in the data set with Hep 3B2 [2]) was above 100 µM in each case.

Take `CC1(C)CCC[C@](C)([C@H]2CC[C@]3(C)[C@@H]2[C@H](O)C[C@@H]2[C@@]4(C)CC/C(=N\Nc5ccccc5F)C(C)(C)[C@@H]4CC[C@]23C)O1`: the IC50 is 10.1 µM in data set [1] and above 100 µM in the data set with Hep 3B2 [2].

For the compound `CC1(C)CCC[C@](C)([C@H]2CC[C@]3(C)[C@@H]2[C@H](O)C[C@@H]2[C@@]4(C)CC(=C\c5ccccc5F)/C(=N\NC(N)=O)C(C)(C)[C@@H]4CC[C@]23C)O1`, the IC50 in data set [1] turned out to be 5.9 µM; in the data set with Hep 3B2 [2], 5.6 µM.

Turning to `Cc1cccc(N/N=C2\CC[C@]3(C)[C@H]4C[C@@H](O)[C@@H]5[C@@H]([C@@]6(C)CCCC(C)(C)O6)CC[C@@]5(C)[C@]4(C)CC[C@H]3C2(C)C)c1`, the IC50 in data set [1] is 56.5 µM; in the data set on Hep 3B2 [2], above 100 µM.

As to `CC1(C)CCC[C@](C)([C@H]2CC[C@]3(C)[C@@H]2[C@H](O)C[C@@H]2[C@@]4(C)CC(=C\c5ccc(Cl)cc5)/C(=N\NC(N)=O)C(C)(C)[C@@H]4CC[C@]23C)O1`, the IC50 came out at 5.5 µM in data set [1] and 11.3 µM with Hep 3B2 [2].

Consider `CC1(C)CCC[C@](C)([C@H]2CC[C@]3(C)[C@@H]2[C@H](O)C[C@@H]2[C@@]4(C)CC/C(=N\Nc5ccc(Cl)cc5Cl)C(C)(C)[C@@H]4CC[C@]23C)O1`, for which the concentration for half-maximal inhibition (IC50) in data set [1] is 3.7 µM; in the data set with Hep 3B2 [2], above 100 µM. Moreover, in data set [1], the inhibition result is “Dose-dependent effect”. Also, the Activity entry in the data set on Hep 3B2 [3] was “Non-Toxic”.

On to `CC1(C)CCC[C@](C)([C@H]2CC[C@]3(C)[C@@H]2[C@H](O)C[C@@H]2[C@@]4(C)CC/C(=N\Nc5cccc(F)c5)C(C)(C)[C@@H]4CC[C@]23C)O1`, for which the figures for the IC50 (in data set [1]; in the data set on Hep 3B2 [2]) were 67 µM and above 100 µM, respectively.

As to `CC1(C)CCC[C@](C)([C@H]2CC[C@]3(C)[C@@H]2[C@H](O)C[C@@H]2[C@@]4(C)CC(=C\c5ccc(Cl)cc5)/C(=N\NC(N)=S)C(C)(C)[C@@H]4CC[C@]23C)O1`, the IC50 (in data set [1]; in the data set with Hep 3B2 [2]) was above 100 µM in each case.

In the case of `CC1(C)CCC[C@](C)([C@H]2CC[C@]3(C)[C@@H]2[C@H](O)C[C@@H]2[C@@]4(C)CC/C(=N\Nc5ccc(F)cc5)C(C)(C)[C@@H]4CC[C@]23C)O1`, the IC50 in data set [1] was 21.4 µM; in the data set with Hep 3B2 [2] it was above 100 µM.

As for `CC1(C)CCC[C@](C)([C@H]2CC[C@]3(C)[C@@H]2[C@H](OC(=O)Cn2nnnc2-c2ccccc2)C[C@@H]2[C@@]4(C)CCC(=O)C(C)(C)[C@@H]4CC[C@]23C)O1`, the IC50 (in data set [1]; in the data set with Hep 3B2 [2]) was above 100 µM each time.

On to `CC1(C)CCC[C@](C)([C@H]2CC[C@]3(C)[C@@H]2[C@H](OC(=O)Cn2nnnc2-c2ccc4c(c2)OCO4)C[C@@H]2[C@@]4(C)CCC(=O)C(C)(C)[C@@H]4CC[C@]23C)O1`, for which the results for the IC50 (in data set [1]; in the data set with Hep 3B2 [2]) were 40.9 µM and above 100 µM, respectively.

As to `COc1ccc(/C=C2\C[C@]3(C)[C@H]4C[C@@H](O)[C@@H]5[C@@H]([C@@]6(C)CCCC(C)(C)O6)CC[C@@]5(C)[C@]4(C)CC[C@H]3C(C)(C)\C2=N\NC(=N)N)cc1`, the IC50 in data set [1] is 5.8 µM; with Hep 3B2 [2], 6.1 µM.

Take `CC1(C)CCC[C@](C)([C@H]2CC[C@]3(C)[C@@H]2[C@H](O)C[C@@H]2[C@@]4(C)CC[C@H](O)C(C)(C)[C@@H]4CC[C@]23C)O1` [PANAXADIOL]: the IC50 in data set [1] worked out at 9.1 µM; in the data set with Hep 3B2 [2], 31.7 µM.

As for `Cc1ccc(/C=C2\C[C@]3(C)[C@H]4C[C@@H](O)[C@@H]5[C@@H]([C@@]6(C)CCCC(C)(C)O6)CC[C@@]5(C)[C@]4(C)CC[C@H]3C(C)(C)\C2=N\NC(N)=O)cc1`, the results for the IC50 (in data set [1]; in the data set on Hep 3B2 [2]) were 9.8 µM and 4.1 µM, respectively.

On to `CC1(C)CCC[C@](C)([C@H]2CC[C@]3(C)[C@@H]2[C@H](O)C[C@@H]2[C@@]4(C)CC/C(=N\Nc5cccc(Cl)c5)C(C)(C)[C@@H]4CC[C@]23C)O1`, for which the IC50 in data set [1] was 36.7 µM; in the data set on Hep 3B2 [2], above 100 µM.

Take `CC1(C)CCC[C@](C)([C@H]2CC[C@]3(C)[C@@H]2[C@H](OC(=O)CNc2cccc(-c4nnn[nH]4)c2)C[C@@H]2[C@@]4(C)CCC(=O)C(C)(C)[C@@H]4CC[C@]23C)O1`: the IC50 (in data set [1]; in the data set on Hep 3B2 [2]) was above 100 µM throughout.

Turning to `CC1(C)CCC[C@](C)([C@H]2CC[C@]3(C)[C@@H]2[C@H](O)C[C@@H]2[C@@]4(C)CC(=C\c5cccc(F)c5)/C(=N\NC(N)=O)C(C)(C)[C@@H]4CC[C@]23C)O1`, the IC50 in data set [1] is 3.5 µM; in the data set with Hep 3B2 [2], 5.2 µM.

In the case of `CC1(C)CCC[C@](C)([C@H]2CC[C@]3(C)[C@@H]2[C@H](OC(=O)Cn2nnnc2-c2ccc(Cl)cc2)C[C@@H]2[C@@]4(C)CCC(=O)C(C)(C)[C@@H]4CC[C@]23C)O1`, the IC50 amounted to 12.4 µM in data set [1] and 42.9 µM in the data set on Hep 3B2 [2].

In the case of `CC1(C)CCC[C@](C)([C@H]2CC[C@]3(C)[C@@H]2[C@H](O)C[C@@H]2[C@@]4(C)CC(=C\c5ccc(F)cc5)/C(=N\NC(N)=O)C(C)(C)[C@@H]4CC[C@]23C)O1`, the values for the IC50 (in data set [1]; in the data set on Hep 3B2 [2]) were 11.7 µM and above 100 µM, respectively.

Turning to `CC1(C)CCC[C@](C)([C@H]2CC[C@]3(C)[C@@H]2[C@H](OC(=O)CNc2nnn[nH]2)C[C@@H]2[C@@]4(C)CCC(=O)C(C)(C)[C@@H]4CC[C@]23C)O1`, the figures for the IC50 (in data set [1]; in the data set on Hep 3B2 [2]) were 36.2 µM and above 100 µM, respectively.

In the case of `Cc1ccccc1N/N=C1\CC[C@]2(C)[C@H]3C[C@@H](O)[C@@H]4[C@@H]([C@@]5(C)CCCC(C)(C)O5)CC[C@@]4(C)[C@]3(C)CC[C@H]2C1(C)C`, the IC50 in data set [1] is 24.9 µM; in the data set on Hep 3B2 [2], above 100 µM.

With `CC1(C)CCC[C@](C)([C@H]2CC[C@]3(C)[C@@H]2[C@H](O)C[C@@H]2[C@@]4(C)CC(=C\c5ccc(O)cc5)/C(=N\NC(=N)N)C(C)(C)[C@@H]4CC[C@]23C)O1`, the figures for the IC50 (in data set [1]; with Hep 3B2 [2]) were 6.2 µM and 6.3 µM, respectively.

As for `Cc1ccc(N/N=C2\CC[C@]3(C)[C@H]4C[C@@H](O)[C@@H]5[C@@H]([C@@]6(C)CCCC(C)(C)O6)CC[C@@]5(C)[C@]4(C)CC[C@H]3C2(C)C)cc1`, the IC50 in data set [1] is 7.1 µM; with Hep 3B2 [2], above 100 µM.

Turning to `CC1(C)CCC[C@](C)([C@H]2CC[C@]3(C)[C@@H]2[C@H](O)C[C@@H]2[C@@]4(C)CC/C(=N\Nc5ccccc5Cl)C(C)(C)[C@@H]4CC[C@]23C)O1`, the IC50 (in data set [1]; in the data set with Hep 3B2 [2]) was above 100 µM in each case.

Take `Cc1ccc(/C=C2\C[C@]3(C)[C@H]4C[C@@H](O)[C@@H]5[C@@H]([C@@]6(C)CCCC(C)(C)O6)CC[C@@]5(C)[C@]4(C)CC[C@H]3C(C)(C)\C2=N\NC(N)=S)cc1`: the IC50 in data set [1] was found to be 6.1 µM; in the data set on Hep 3B2 [2] it was 43.1 µM.

In the case of `Cc1ccc(/C=C2\C[C@]3(C)[C@H]4C[C@@H](O)[C@@H]5[C@@H]([C@@]6(C)CCCC(C)(C)O6)CC[C@@]5(C)[C@]4(C)CC[C@H]3C(C)(C)\C2=N\NC(=N)N)cc1`, the values for the IC50 (in data set [1]; in the data set on Hep 3B2 [2]) were 37.7 µM and 11.3 µM, respectively.

For the compound `CC1(C)CCC[C@](C)([C@H]2CC[C@]3(C)[C@@H]2[C@H](O)C[C@@H]2[C@@]4(C)CC(=C\c5ccc(F)cc5)/C(=N\NC(N)=S)C(C)(C)[C@@H]4CC[C@]23C)O1`, the IC50 in data set [1] is 9 µM; in the data set on Hep 3B2 [2], 24.1 µM.

Turning to `CC1(C)CCC[C@](C)([C@H]2CC[C@]3(C)[C@@H]2[C@H](O)C[C@@H]2[C@@]4(C)CC/C(=N\Nc5ccc(Cl)cc5)C(C)(C)[C@@H]4CC[C@]23C)O1`, the IC50 was 26 µM in data set [1] and above 100 µM with Hep 3B2 [2].

Take `CC1(C)CCC[C@](C)([C@H]2CC[C@]3(C)[C@@H]2[C@H](O)C[C@@H]2[C@@]4(C)CC/C(=N\Nc5ccc(F)cc5F)C(C)(C)[C@@H]4CC[C@]23C)O1`: the IC50 in data set [1] is 12.8 µM; in the data set with Hep 3B2 [2] it was above 100 µM.
